Results taken from ChEMBL document CHEMBL3774308, “KATching-Up on Small Molecule Modulators of Lysine Acetyltransferases” (J Med Chem, 2016).
Blank lines part the entries; values can stand above or below the compound they belong to.

How the values were obtained:
[1] = biological target: T1, Histone acetyltransferase p300 (Homo sapiens, UniProt Q09472); test: Inhibition of recombinant p300 catalytic domain (unknown origin) using N-terminal histone H3 substrate at 52 uM by orthogonal fluorescence assay in presence of [3H]acetyl-CoA relative to control
T1 sequence (Q09472 whole entry, the tested form may be a part): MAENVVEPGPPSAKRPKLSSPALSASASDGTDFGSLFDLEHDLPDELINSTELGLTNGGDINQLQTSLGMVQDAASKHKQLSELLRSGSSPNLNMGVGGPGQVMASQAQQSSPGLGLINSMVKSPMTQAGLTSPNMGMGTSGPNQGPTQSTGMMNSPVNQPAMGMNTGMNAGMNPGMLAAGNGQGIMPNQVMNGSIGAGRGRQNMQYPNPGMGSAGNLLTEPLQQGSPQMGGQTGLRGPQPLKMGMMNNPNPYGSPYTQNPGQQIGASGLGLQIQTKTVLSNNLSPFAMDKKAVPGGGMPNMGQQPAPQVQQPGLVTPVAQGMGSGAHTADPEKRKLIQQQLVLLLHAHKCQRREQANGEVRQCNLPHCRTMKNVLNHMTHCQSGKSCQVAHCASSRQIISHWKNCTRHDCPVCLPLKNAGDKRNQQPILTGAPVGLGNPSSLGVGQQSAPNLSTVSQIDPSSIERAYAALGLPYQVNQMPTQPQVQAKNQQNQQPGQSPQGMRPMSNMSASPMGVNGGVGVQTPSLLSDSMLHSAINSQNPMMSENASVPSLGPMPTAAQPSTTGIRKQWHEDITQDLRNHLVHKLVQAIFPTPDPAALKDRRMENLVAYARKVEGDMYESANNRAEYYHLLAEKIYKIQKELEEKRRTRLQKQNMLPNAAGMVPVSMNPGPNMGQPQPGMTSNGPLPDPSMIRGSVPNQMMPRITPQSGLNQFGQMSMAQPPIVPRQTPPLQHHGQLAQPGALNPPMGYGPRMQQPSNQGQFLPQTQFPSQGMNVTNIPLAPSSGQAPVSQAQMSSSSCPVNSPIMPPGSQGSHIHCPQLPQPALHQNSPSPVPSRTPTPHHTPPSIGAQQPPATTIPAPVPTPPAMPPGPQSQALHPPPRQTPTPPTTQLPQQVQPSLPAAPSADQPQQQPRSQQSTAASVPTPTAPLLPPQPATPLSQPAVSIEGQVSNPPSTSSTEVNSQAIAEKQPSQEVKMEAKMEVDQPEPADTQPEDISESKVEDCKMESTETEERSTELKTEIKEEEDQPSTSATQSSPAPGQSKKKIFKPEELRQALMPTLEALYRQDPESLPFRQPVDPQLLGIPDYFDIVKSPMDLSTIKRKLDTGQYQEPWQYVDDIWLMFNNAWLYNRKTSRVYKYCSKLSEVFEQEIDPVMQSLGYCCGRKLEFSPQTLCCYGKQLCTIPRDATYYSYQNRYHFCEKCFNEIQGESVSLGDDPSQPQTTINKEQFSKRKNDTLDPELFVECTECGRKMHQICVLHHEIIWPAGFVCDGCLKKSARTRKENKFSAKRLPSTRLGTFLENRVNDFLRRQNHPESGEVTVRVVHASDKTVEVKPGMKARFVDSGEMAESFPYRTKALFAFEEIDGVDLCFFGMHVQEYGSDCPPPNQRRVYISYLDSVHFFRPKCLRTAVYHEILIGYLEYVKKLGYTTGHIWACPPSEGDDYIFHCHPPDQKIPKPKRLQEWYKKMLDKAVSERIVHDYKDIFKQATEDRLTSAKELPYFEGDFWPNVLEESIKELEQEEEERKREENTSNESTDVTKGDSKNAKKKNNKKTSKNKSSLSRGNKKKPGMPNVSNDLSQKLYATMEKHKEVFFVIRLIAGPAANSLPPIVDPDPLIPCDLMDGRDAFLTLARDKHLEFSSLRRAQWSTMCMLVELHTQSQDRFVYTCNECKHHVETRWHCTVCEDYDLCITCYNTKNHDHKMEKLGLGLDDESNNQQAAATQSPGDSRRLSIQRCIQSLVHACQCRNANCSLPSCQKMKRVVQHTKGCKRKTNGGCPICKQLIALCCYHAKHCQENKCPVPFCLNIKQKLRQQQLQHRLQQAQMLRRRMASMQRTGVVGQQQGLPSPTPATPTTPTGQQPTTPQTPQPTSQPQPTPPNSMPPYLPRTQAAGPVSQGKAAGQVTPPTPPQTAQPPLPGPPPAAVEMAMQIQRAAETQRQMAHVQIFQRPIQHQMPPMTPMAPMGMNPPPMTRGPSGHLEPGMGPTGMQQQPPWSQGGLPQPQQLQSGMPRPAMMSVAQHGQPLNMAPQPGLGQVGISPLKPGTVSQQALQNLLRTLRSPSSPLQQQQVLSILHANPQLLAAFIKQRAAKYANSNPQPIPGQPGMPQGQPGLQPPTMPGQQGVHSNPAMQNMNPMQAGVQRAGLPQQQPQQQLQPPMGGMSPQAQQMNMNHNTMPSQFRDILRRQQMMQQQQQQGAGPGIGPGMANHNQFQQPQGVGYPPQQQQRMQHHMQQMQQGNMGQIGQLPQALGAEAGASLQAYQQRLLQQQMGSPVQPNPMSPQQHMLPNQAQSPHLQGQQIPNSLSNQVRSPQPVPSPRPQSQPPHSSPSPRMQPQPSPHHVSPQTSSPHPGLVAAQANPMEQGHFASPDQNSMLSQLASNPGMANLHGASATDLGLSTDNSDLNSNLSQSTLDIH

[2] = biological target: T1, Histone acetyltransferase p300; test: Inhibition of recombinant p300 catalytic domain (unknown origin) using N-terminal histone H3 substrate by radiometric filter binding assay in presence of [3H]acetyl-CoA
[3] = biological target: T2, Histone acetyltransferase KAT5 (Homo sapiens, UniProt Q92993); test: Inhibition of recombinant human GFP-tagged TIP60 expressed in chicken embryo DT40 cells using histone substrate at 500 uM incubated for 1 hr followed by ionizing radiation treatment by immunosorbent gel assay relative to control; assay type: cell-based
Target sequence in this assay (Q92993 whole entry, looked up, the tested form may be a part): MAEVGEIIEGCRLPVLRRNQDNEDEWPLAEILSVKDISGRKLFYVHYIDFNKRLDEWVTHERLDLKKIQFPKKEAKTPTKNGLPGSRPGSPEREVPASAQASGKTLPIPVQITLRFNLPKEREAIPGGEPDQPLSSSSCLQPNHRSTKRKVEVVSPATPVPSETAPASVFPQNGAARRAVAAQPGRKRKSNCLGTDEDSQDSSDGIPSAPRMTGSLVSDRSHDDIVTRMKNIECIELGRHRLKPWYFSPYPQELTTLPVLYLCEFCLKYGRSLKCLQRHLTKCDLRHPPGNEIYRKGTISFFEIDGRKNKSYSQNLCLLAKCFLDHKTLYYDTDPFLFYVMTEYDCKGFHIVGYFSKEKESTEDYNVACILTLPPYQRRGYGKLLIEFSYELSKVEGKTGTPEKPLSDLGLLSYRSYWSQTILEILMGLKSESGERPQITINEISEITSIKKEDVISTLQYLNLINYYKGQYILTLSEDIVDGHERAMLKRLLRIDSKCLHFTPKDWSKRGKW

[4] = biological target: T1, Histone acetyltransferase p300; test: Inhibition of human recombinant p300 catalytic domain (1284 to 1673 residues) expressed in Escherichia coli using H4-8 peptide substrate by radiometric assay in presence of [3H]acetyl-CoA
[5] = biological target: T2, Histone acetyltransferase KAT5; test: Inhibition of recombinant TIP60 (unknown origin) using histone H4 peptide substrate assessed as reduction in NADH formation by spectrophotometric analysis
[6] = biological target: T3, Histone acetyltransferase KAT2B (Homo sapiens, UniProt Q92831); test: Inhibition of recombinant PCAF (unknown origin) using histone H4 peptide substrate assessed as reduction in NADH formation by spectrophotometric analysis
Target sequence in this assay (Q92831 whole entry): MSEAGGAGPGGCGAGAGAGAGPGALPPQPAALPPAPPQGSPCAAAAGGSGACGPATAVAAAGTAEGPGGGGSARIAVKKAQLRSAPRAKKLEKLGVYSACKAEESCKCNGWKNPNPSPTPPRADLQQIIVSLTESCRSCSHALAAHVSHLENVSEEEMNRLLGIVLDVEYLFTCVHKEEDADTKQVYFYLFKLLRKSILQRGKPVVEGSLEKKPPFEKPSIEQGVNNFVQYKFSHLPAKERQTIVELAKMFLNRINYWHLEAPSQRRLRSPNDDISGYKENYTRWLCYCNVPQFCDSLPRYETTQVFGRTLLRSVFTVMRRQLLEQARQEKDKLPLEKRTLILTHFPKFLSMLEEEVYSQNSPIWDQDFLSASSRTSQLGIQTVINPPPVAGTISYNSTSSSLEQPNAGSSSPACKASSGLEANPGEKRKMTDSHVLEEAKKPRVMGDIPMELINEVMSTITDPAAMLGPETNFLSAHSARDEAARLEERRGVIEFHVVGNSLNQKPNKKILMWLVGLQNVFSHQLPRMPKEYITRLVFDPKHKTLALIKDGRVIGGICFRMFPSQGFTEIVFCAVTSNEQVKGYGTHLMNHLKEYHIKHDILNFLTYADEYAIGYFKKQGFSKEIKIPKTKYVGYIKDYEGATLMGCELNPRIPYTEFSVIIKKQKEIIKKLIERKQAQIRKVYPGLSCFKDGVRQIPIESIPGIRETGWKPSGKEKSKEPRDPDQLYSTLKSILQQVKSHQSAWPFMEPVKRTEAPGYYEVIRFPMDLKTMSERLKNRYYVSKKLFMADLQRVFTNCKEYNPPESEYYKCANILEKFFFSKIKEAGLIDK

CREB-binding protein [7] = biological target: T4, CREB-binding protein (Homo sapiens, UniProt Q92793); test: Inhibition of recombinant GST-tagged CBP (unknown origin) using histone H4 peptide substrate assessed as reduction in NADH formation by spectrophotometric analysis
[8] = biological target: T1, Histone acetyltransferase p300; test: Inhibition of recombinant GST-tagged p300 (unknown origin) using histone H4 peptide substrate assessed as reduction in NADH formation by spectrophotometric analysis
[9] = biological target: T1, Histone acetyltransferase p300; test: Inhibition of recombinant full length p300 (unknown origin) using N-terminal H4-20 peptide substrate incubated for 7 mins by radiometric gel assay in presence of [14C]acetyl-CoA
[10] = biological target: T1, Histone acetyltransferase p300; test: Inhibition of human recombinant C-terminal GST-tagged p300 (1195 to 1673 residues) expressed in competent Escherichia coli DH5alpha cells using histone substrate after 30 mins by scintillation counting method in presence of [3H]acetyl-CoA
[11] = biological target: T3, Histone acetyltransferase KAT2B; test: Inhibition of full length recombinant human FLAG-tagged PCAF expressed in baculovirus expression system using histone substrate incubated for 10 mins by radiometric gel assay
Target sequence in this assay (Q92831 whole entry): as above

[12] = biological target: T1, Histone acetyltransferase p300; test: Inhibition of full length recombinant human FLAG-tagged p300 expressed in baculovirus expression system using histone substrate incubated for 10 mins by radiometric gel assay
[13] = biological target: T3, Histone acetyltransferase KAT2B; test: Inhibition of recombinant PCAF (unknown origin) expressed in baculovirus expression system using histone substrate after 10 mins by liquid scintillation counting method in presence of [3H]acetyl-CoA
Target sequence in this assay (Q92831 whole entry): as above

[14] = biological target: T1, Histone acetyltransferase p300; test: Inhibition of full length recombinant His6-tagged p300 (unknown origin) expressed in baculovirus expression system using histone substrate after 10 mins by liquid scintillation counting method in presence of [3H]acetyl-CoA
[15] = biological target: Histone acetyltransferase KAT6A (Homo sapiens) (UniProt Q92794); test: Inhibition of human MOZ using histone H3 substrate at 10 uM incubated for 2 to 4 mins by SDS-PAGE based autoradiography in presence of [14C]acetyl-CoA relative to control
[16] = biological target: T3, Histone acetyltransferase KAT2B; test: Inhibition of PCAF (unknown origin) using H4-15 peptide substrate at 10 uM incubated for 10 mins by radiometric filter binding assay in presence of [14C]acetyl-CoA relative to control
Target sequence in this assay (Q92831 whole entry, looked up): as the sequence (Q92831 whole entry) above

Saccharomyces cerevisiae [17] = test: Inhibition of yeast RTT109 using histone H3 substrate at 10 uM incubated for 2 to 4 mins by SDS-PAGE based autoradiography in presence of [14C]acetyl-CoA relative to control
Saccharomyces cerevisiae [18] = test: Inhibition of yeast GCN5 using histone H3 substrate at 10 uM incubated for 2 to 4 mins by SDS-PAGE based autoradiography in presence of [14C]acetyl-CoA relative to control
Saccharomyces cerevisiae [19] = test: Inhibition of yeast YJW458 TAP-tagged SAS2 expressed in Escherichia coli BL21-CodonPlus(DE3)-RIL cells using histone H3 as substrate at 10 uM incubated for 2 to 4 mins by SDS-PAGE based autoradiography in presence of [14C]acetyl-CoA relative to control
[20] = biological target: T1, Histone acetyltransferase p300; test: Inhibition of full length recombinant His6-tagged p300 (unknown origin) expressed in baculovirus expression system using histone substrate at 25 uM after 10 mins by liquid scintillation counting method in presence of [3H]acetyl-CoA relative to control
[21] = biological target: T2, Histone acetyltransferase KAT5; test: Inhibition of TIP60 (unknown origin) expressed in bacterial system using histone substrate at 25 uM after 10 mins by liquid scintillation counting method in presence of [3H]acetyl-CoA relative to control
Target sequence in this assay (Q92993 whole entry, looked up, the tested form may be a part): as the sequence (Q92993 whole entry, looked up, the tested form may be a part) above

[22] = biological target: T3, Histone acetyltransferase KAT2B; test: Inhibition of full length recombinant FLAG-tagged PCAF (unknown origin) expressed in baculovirus expression system using histone substrate after 10 mins by liquid scintillation counting method in presence of [3H]acetyl-CoA
Target sequence in this assay (Q92831 whole entry): as the sequence (Q92831 whole entry) above

[23] = biological target: T1, Histone acetyltransferase p300; test: Inhibition of full length recombinant human His6-tagged p300 expressed in baculovirus infected Sf21 cells using N-terminal H3 peptide substrate after 10 mins by radiometric filter binding assay in presence of [3H]acetyl-CoA
[24] = biological target: T1, Histone acetyltransferase p300; test: Inhibition of recombinant human p300 catalytic domain (1284 to 1673 residues) using histone H3 peptide substrate at 100 uM after 1 hr by liquid scintillation counting method in presence of [3H]acetyl-CoA relative to control
[25] = biological target: T3, Histone acetyltransferase KAT2B; test: Inhibition of recombinant human PCAF catalytic domain (492 to 658 residues) using histone H3 peptide substrate at 100 uM after 1 hr by liquid scintillation counting method in presence of [3H]acetyl-CoA relative to control
Target sequence in this assay (Q92831 whole entry, looked up): as the sequence (Q92831 whole entry) above

[26] = biological target: T3, Histone acetyltransferase KAT2B; test: Inhibition of PCAF (unknown origin) using N-terminal histone H3 substrate by radiometric filter binding based phenotypic screen in presence of [3H]acetyl-CoA
Target sequence in this assay (Q92831 whole entry): as above

[27] = biological target: T1, Histone acetyltransferase p300; test: Inhibition of recombinant p300 catalytic domain (unknown origin) using N-terminal histone H3 substrate by radiometric filter binding based phenotypic screen in presence of [3H]acetyl-CoA
[28] = biological target: T2, Histone acetyltransferase KAT5; test: Inhibition of TIP60 (unknown origin) using N-terminal histone H3 substrate at 100 uM by […] in presence of [3H]acetyl-CoA relative to control
Target sequence in this assay (Q92993 whole entry, looked up, the tested form may be a part): as the sequence (Q92993 whole entry, looked up, the tested form may be a part) above

[29] = biological target: T5, Histone acetyltransferase KAT2A (Homo sapiens, UniProt Q92830); test: Inhibition of GCN5 (unknown origin) using N-terminal histone H3 substrate by radiometric filter binding based phenotypic screen in presence of [3H]acetyl-CoA
[30] = biological target: T1, Histone acetyltransferase p300; test: Inhibition of recombinant p300 catalytic domain (unknown origin) using N-terminal histone H3 substrate by orthogonal fluorescence assay in presence of [3H]acetyl-CoA
[31] = biological target: Histone acetyltransferase KAT7 (Homo sapiens) (UniProt O95251); test: Inhibition of HBO1 (unknown origin) using N-terminal histone H3 substrate at 100 uM by […] in presence of [3H]acetyl-CoA relative to control
CREB-binding protein [32] = biological target: T4, CREB-binding protein; test: Inhibition of CBP (unknown origin) using N-terminal histone H3 substrate at 100 uM by radiometric filter binding based phenotypic screen in presence of [3H]acetyl-CoA relative to control
[33] = biological target: T1, Histone acetyltransferase p300; test: Inhibition of full length recombinant His6-tagged p300 (unknown origin) expressed in baculovirus infected sf21 cells using histone substrate after 10 mins by liquid scintillation counting method in presence of [3H]acetyl-CoA
[34] = biological target: T3, Histone acetyltransferase KAT2B; test: Inhibition of recombinant PCAF (unknown origin) expressed in baculovirus expression system using histone substrate at 50 uM after 10 mins by liquid scintillation counting method in presence of [3H]acetyl-CoA relative to control
Target sequence in this assay (Q92831 whole entry, looked up): as the sequence (Q92831 whole entry) above

[35] = biological target: T1, Histone acetyltransferase p300; test: Inhibition of recombinant p300 (unknown origin) expressed in baculovirus expression system using histone substrate at 50 uM after 10 mins by liquid scintillation counting method in presence of [3H]acetyl-CoA relative to control
[36] = biological target: T5, Histone acetyltransferase KAT2A; test: Inhibition of recombinant human GCN5 catalytic domain (497 to 663 residues) expressed in Escherichia coli using histone H3 (5 to 23 residues) as substrate at 800 uM after 1 hr by liquid scintillation counting method in presence of [3H]acetyl-CoA relative to control
[37] = biological target: T3, Histone acetyltransferase KAT2B; test: Inhibition of recombinant human PCAF catalytic domain (492 to 658 residues) expressed in Escherichia coli using histone H3 (5 to 23 residues) as substrate at 800 uM after 1 hr by liquid scintillation counting method in presence of [3H]acetyl-CoA relative to control
Target sequence in this assay (Q92831 whole entry, looked up): as the sequence (Q92831 whole entry) above

[38] = biological target: T1, Histone acetyltransferase p300; test: Activation of full length recombinant human His6-tagged p300 expressed in baculovirus infected Sf21 cells using N-terminal H3 peptide substrate at 275 uM after 10 mins by radiometric filter binding assay in presence of [3H]acetyl-CoA relative to control

Structure (SMILES): CCCCCCCCCCCCCCCc1cccc(O)c1C(=O)O [ANACARDIC ACID]
%max [1]: 60%
IC50 [2]: 4.15 µM

Structure (SMILES): O=C(O[C@@H]1Cc2c(O)cc(O)cc2O[C@@H]1c1cc(O)c(O)c(O)c1)c1cc(O)c(O)c(O)c1 [EPIGALOCATECHIN GALLATE]
IC50 [5]: 70 µM
IC50 [6]: 60 µM
IC50 (CREB-binding protein [7]): 50 µM
IC50 [8]: 30 µM

Structure (SMILES): CC1=CC(=O)c2c(O)cccc2C1=O [PLUMBAGIN]
IC50 [13]: 50 µM
IC50 [14]: 20 µM

Structure (SMILES): C=C(C)[C@@H](/C=C/C(C)C)C[C@@]12C[C@@H](/C=C\C(C)C)C(C)(C)[C@@](CC=C(C)C)(C(=O)C(C(=O)c3ccc(O)c(O)c3)=C1O)C2=O
IC50 [23]: 7 µM

Structure (SMILES): CCCCCCCCCCCCCCC=C(C(=O)OCC)C(=O)OCC
inhibition [24]: 81.2%
inhibition [25]: 37.5%

Structure (SMILES): COc1ccc(S(=O)(=O)ON=C2C=C(C)C(=O)C(C)=C2)cc1
IC50 [26]: 34.7 µM
IC50 [27]: 128 µM
inhibition [28]: 2%
IC50 [29]: 33.9 µM
IC50 [30]: 1.98 µM
inhibition [31]: 1%
inhibition (CREB-binding protein [32]): 32%

Structure (SMILES): COc1ccc(C(=O)C2=C3OC(C)(C)[C@@H](CC=C(C)C)C[C@@]34C[C@@H](/C=C\C(C)C)C(C)(C)[C@@](CC=C(C)C)(C2=O)C4=O)cc1O
IC50 [33]: 5 µM

Structure (SMILES): COc1cc(/C=C/c2cc(/C=C/c3ccc(O)c(OC)c3)n(-c3ccc(C(=O)O)cc3)n2)ccc1O
inhibition [34]: > 50%
inhibition [35]: > 50%

Structure (SMILES): CCCCCCCCCCCCCCCc1cccc(OCC)c1C(=O)Nc1ccc(Cl)c(C(F)(F)F)c1
Emax [38]: 400%

Structure (SMILES): CNC(=O)[C@H](C)NC(=O)[C@H](CCCNC(=N)N)NC(=O)[C@@H](NC(=O)[C@H](CCCCN)NC(=O)[C@H](CCC(N)=O)NC(=O)[C@@H](NC(=O)[C@H](C)NC(=O)[C@H](CCCNC(=N)N)NC(=O)[C@H](CC(C)C)NC(=O)[C@H](CO)NC(=O)[C@@H](NC(=O)CNC(=O)CNC(=O)N[C@H](CCCCNC(=O)CSCCNC(=O)CCNC(=O)[C@@H](O)C(C)(C)COP(=O)(O)OP(=O)(O)OC[C@@H]1O[C@H](n2cnc3c(N)ncnc32)[C@@H](O)[C@H]1OP(=O)(O)O)C(=O)N[C@@H](C)C(=O)N1CCC[C@@H]1C(=O)N[C@H](CCCNC(=N)N)C(=O)N[C@H](CCCCN)C(=O)N[C@H](CCC(N)=O)C(=O)N[C@@H](CC(C)C)C(=O)O)[C@H](C)O)[C@H](C)O)[C@H](C)O
IC50 [11]: 0.3 µM
IC50 [12]: 200 µM

Now from value to compound, other results behind:

inhibition [3]: 60%
Structure (SMILES): O=C(O)Cn1nnc(-c2ccc(CN(CCCCOc3ccc(CN4CCCC4)cc3)CCc3ccccc3)cc2)n1

IC50 [4]: 0.07 µM
Structure (SMILES): CC(C)(C)OC(=O)NCCCCCNC(=O)CSCCNC(=O)CCNC(=O)[C@H](O)C(C)(C)COP(=O)(O)OP(=O)(O)OC[C@H]1O[C@@H](n2cnc3c(N)ncnc32)[C@H](O)[C@@H]1OP(=O)(O)O

IC50 [9]: 0.05 µM
IC50 [10]: 0.0032 µM
IC50 [11]: 200 µM
IC50 [12]: 0.5 µM
Structure (SMILES): CC(=O)N[C@@H](CCCCNC(=O)CSCCNC(=O)CCNC(=O)[C@H](O)C(C)(C)COP(=O)(O)OP(=O)(O)OC[C@H]1O[C@@H](n2cnc3c(N)ncnc32)[C@H](O)[C@@H]1OP(=O)(O)O)C(N)=O

inhibition [15]: < 10%
inhibition [16]: < 10%
inhibition (Saccharomyces cerevisiae [17]): < 10%
inhibition (Saccharomyces cerevisiae [18]): < 10%
Structure (SMILES): CC1=NN(c2ccc(C(=O)O)cc2)C(=O)/C1=C\c1ccc(-c2cc(C)c(C)cc2[N+](=O)[O-])o1
inhibition (Saccharomyces cerevisiae [19]): < 10%

inhibition [20]: 75%
inhibition [21]: 75%
IC50 [22]: 7.2 µM
Structure (SMILES): CCCCCCCCCCCC1=C(O)C(=O)C=C(O)C1=O [EMBELIN]

IC50 [10]: 0.022 µM
Structure (SMILES): N=C(N)NCCC[C@@H]1NC(=O)/C(=C/c2ccc(O)c(OCC[C@H](NC(=O)C[C@](O)(CC(=O)O)C(=O)O)C(=O)O)c2)NC1=O

IC50 [10]: 0.011 µM
Structure (SMILES): N=C(N)NCCC[C@@H]1NC(=O)/C(=C/c2ccc(O)c(OCC[C@H](NC(=O)C[C@](O)(CC(=O)N[C@@H](CC(=O)O)C(=O)O)C(=O)O)C(=O)O)c2)NC1=O

inhibition [36]: 40%
inhibition [37]: 40%
Structure (SMILES): CC1CC/C(=N/Nc2nc(-c3ccc(Cl)cc3)cs2)C1 (configuration not stated)
